The test system of series [1] is MDA-MB-231. The series is described as follows: Antimigratory activity in human MDA-MB-231 cells after 24 hrs by wound healing assay. The note with it: MDA-MB-231, 24 h.
Series [2] can be described thus: Cytotoxicity against human MCF10A cells at => IC50 of antiproliferative assay after 24 hrs by MTT assay. The note with it: mcf-10a.
Series [3] can be described thus: Cytotoxicity against human MCF10A cells at => IC50 of wound healing assay after 24 hrs by MTT assay. The note with it: mcf-10a.
The subject of series [4] is MCF7. The series is described as follows: cells. To be noted: Homo sapiens, MCF7, 72 h.
In series [5] the test system is MDA-MB-231. Put plainly: Antiproliferative activity against human MDA-MB-231 cells after 72 hrs by MTT assay. To be noted: MDA-MB-231, 72 h.
For series [6], the target named is Protein-tyrosine kinase 6 (Homo sapiens) (UniProt Q13882). The series is described as follows: Inhibition of PTK6 phosphorylation in human MDA-MB-231 cells at 20 uM after 72 hrs by Western blot analysis. It counts as cell-based.

Structures are written as SMILES. The source made the active and inactive calls. No cut-off for these calls is given here. Some results are limits rather than exact numbers.

Sequence of Protein-tyrosine kinase 6 (Homo sapiens) (Q13882 whole entry, looked up): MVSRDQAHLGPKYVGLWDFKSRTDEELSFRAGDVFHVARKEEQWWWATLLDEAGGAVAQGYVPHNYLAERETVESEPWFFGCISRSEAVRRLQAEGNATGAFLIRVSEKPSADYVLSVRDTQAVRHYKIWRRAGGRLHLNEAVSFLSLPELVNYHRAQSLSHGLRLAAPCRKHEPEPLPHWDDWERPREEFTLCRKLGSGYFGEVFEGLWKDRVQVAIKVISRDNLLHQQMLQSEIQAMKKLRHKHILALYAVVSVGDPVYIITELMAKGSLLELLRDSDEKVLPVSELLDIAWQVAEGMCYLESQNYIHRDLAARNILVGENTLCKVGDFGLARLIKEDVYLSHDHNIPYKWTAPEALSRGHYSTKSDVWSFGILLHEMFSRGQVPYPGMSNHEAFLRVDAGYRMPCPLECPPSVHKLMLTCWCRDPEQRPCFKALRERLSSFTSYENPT

`CC1=CC[C@H]2[C@H](CC[C@]2(C)O)C(C)(C)[C@@H]1CC[C@H]1[C@]2(C)CC[C@H](OC(=O)c3ccccc3F)C(C)(C)O[C@H]2CC[C@@]1(C)O`: the IC50 is 22.7 µM in series [1], 22.7 µM in series [1] (read-out: pIC50 (converted)), 11.3 µM in series [4] and 28.7 µM in series [5]. For the same compound, the Activity entry in series [2] and in series [3] was “Non-toxic” in each case.
In the case of `CC1=CC[C@H]2[C@H](CC[C@]2(C)O)C(C)(C)[C@@H]1CC[C@H]1[C@]2(C)CC[C@H](OC(=O)c3ccccc3[N+](=O)[O-])C(C)(C)O[C@H]2CC[C@@]1(C)O`, the IC50 was 18.6 µM in series [1], 18.6 µM in series [1] (read-out: pIC50 (converted)), 5.2 µM in series [4] and 38.7 µM in series [5]. For the same compound, the Activity result in series [2] and in series [3] was “Non-toxic” throughout.
With `CC1=CC[C@H]2[C@H](CC[C@]2(C)O)C(C)(C)[C@@H]1CC[C@H]1[C@]2(C)CC[C@H](OC(=O)c3cccc(C(F)(F)F)c3)C(C)(C)O[C@H]2CC[C@@]1(C)O`, the IC50 was 6.1 µM in series [1], 6.1 µM in series [1] (read-out: pIC50 (converted)), 37.9 µM in series [4] and 36.3 µM in series [5]. The Activity result in series [2] and in series [3] was “Non-toxic” each time.
`CC1=CC[C@H]2[C@H](CC[C@]2(C)O)C(C)(C)[C@@H]1CC[C@H]1[C@]2(C)CC[C@H](OC(=O)c3ccc([N+](=O)[O-])o3)C(C)(C)O[C@H]2CC[C@@]1(C)O`: the IC50 in series [1] was 3.5 µM; in series [1] (read-out: pIC50 (converted)), 3.48 µM; in series [4], 21.3 µM; in series [5], 11.1 µM. Moreover, the Activity entry in series [2] and in series [3] was “Non-toxic” throughout.
As for `CC1=CC[C@H]2[C@H](CC[C@]2(C)O)C(C)(C)[C@@H]1CC[C@H]1[C@]2(C)CC[C@H](OC(=O)c3ccco3)C(C)(C)O[C@H]2CC[C@@]1(C)O`, the IC50 in series [1] is 9.3 µM; in series [1] (read-out: pIC50 (converted)), 9.29 µM; in series [4] it was 25.7 µM; in series [5], 14 µM. Also, the Activity result in series [2] and in series [3] was “Non-toxic” in each case.
`CC1=CC[C@H]2[C@H](CC[C@]2(C)O)C(C)(C)[C@@H]1CC[C@H]1[C@]2(C)CC[C@H](OC(=O)c3ccc(C(F)(F)F)cc3F)C(C)(C)O[C@H]2CC[C@@]1(C)O`: the IC50 in series [1] is 26.4 µM; in series [1] (read-out: pIC50 (converted)), 26.4 µM; in series [4] it was above 50 µM; in series [5] it was 36.3 µM. Further, the Activity result in series [2] and in series [3] was “Non-toxic” in each case.
In the case of `CC1=CC[C@H]2[C@H](CC[C@]2(C)O)C(C)(C)[C@@H]1CC[C@H]1[C@]2(C)CC[C@H](OC(=O)c3ccc([N+](=O)[O-])cc3)C(C)(C)O[C@H]2CC[C@@]1(C)O`, the IC50 in series [1] was 3.4 µM; in series [1] (read-out: pIC50 (converted)) it was 3.35 µM; in series [4], 21.6 µM; in series [5], 8.9 µM. For the same compound, the Activity entry in series [2] and in series [3] was “Non-toxic” throughout.
For `CC1=CC[C@H]2[C@H](CC[C@]2(C)O)C(C)(C)[C@@H]1CC[C@H]1[C@]2(C)CC[C@H](OC(=O)c3ccc(C(F)(F)F)cc3)C(C)(C)O[C@H]2CC[C@@]1(C)O`, the IC50 in series [1] is 7.8 µM; in series [1] (read-out: pIC50 (converted)) it was 7.8 µM; in series [4], 23.4 µM; in series [5], 19.5 µM. Besides, the Activity entry in series [2] and in series [3] was “Non-toxic” each time.
Take `CC1=CC[C@H]2[C@H](CC[C@]2(C)O)C(C)(C)[C@@H]1CC[C@H]1[C@]2(C)CC[C@H](OC(=O)c3ccccc3C(F)(F)F)C(C)(C)O[C@H]2CC[C@@]1(C)O`: the IC50 in series [1] is 34.5 µM; in series [1] (read-out: pIC50 (converted)), 34.5 µM; in series [4], 19.2 µM; in series [5] it was 31.5 µM. The Activity result in series [2] and in series [3] was “Non-toxic” throughout.
Turning to `CC1=CC[C@H]2[C@H](CC[C@]2(C)O)C(C)(C)[C@@H]1CC[C@H]1[C@]2(C)CC[C@H](OC(=O)c3ccc(C(F)(F)F)c(F)c3)C(C)(C)O[C@H]2CC[C@@]1(C)O`, the IC50 is 11.9 µM in series [1], 11.9 µM in series [1] (read-out: pIC50 (converted)), above 50 µM in series [4] and 22.2 µM in series [5]. The Activity entry in series [2] and in series [3] was “Non-toxic” in each case.
As for `CC1=CC[C@H]2[C@H](CC[C@]2(C)O)C(C)(C)[C@@H]1CC[C@H]1[C@]2(C)CC[C@H](OC(=O)c3ccccc3)C(C)(C)O[C@H]2CC[C@@]1(C)O`, the IC50 was 7.9 µM in series [1], 7.91 µM in series [1] (read-out: pIC50 (converted)), 21 µM in series [4] and 16.1 µM in series [5]. In addition, the inhibition result in series [6] was “Active”.
`CC1=CC[C@H]2[C@H](CC[C@]2(C)O)C(C)(C)[C@@H]1CC[C@H]1[C@]2(C)CC[C@H](OC(=O)c3ccc(Cl)c(Cl)c3)C(C)(C)O[C@H]2CC[C@@]1(C)O`: the IC50 is 1.3 µM in series [1], 1.3 µM in series [1] (read-out: pIC50 (converted)), 11.9 µM in series [4] and 8.1 µM in series [5]. The Activity result in series [2] and in series [3] was “Non-toxic” in each case.
On to `CC1=CC[C@H]2[C@H](CC[C@]2(C)O)C(C)(C)[C@@H]1CC[C@H]1[C@]2(C)CC[C@H](OC(=O)c3cccc([N+](=O)[O-])c3)C(C)(C)O[C@H]2CC[C@@]1(C)O`, for which the IC50 in series [1] was 5.9 µM; in series [1] (read-out: pIC50 (converted)) it was 5.9 µM; in series [4], 36 µM; in series [5], 34.7 µM. For the same compound, the Activity result in series [2] and in series [3] was “Non-toxic” in each case.
Turning to `COc1ccc(C(=O)O[C@H]2CC[C@]3(C)[C@H](CC[C@@](C)(O)[C@H]3CC[C@@H]3C(C)=CC[C@H]4[C@H](CC[C@]4(C)O)C3(C)C)OC2(C)C)cc1`, the IC50 was 17.9 µM in series [1], 17.9 µM in series [1] (read-out: pIC50 (converted)), 41.7 µM in series [4] and 30.6 µM in series [5]. Also, the Activity entry in series [2] and in series [3] was “Non-toxic” each time.
In the case of `CC1=CC[C@H]2[C@H](CC[C@]2(C)O)C(C)(C)[C@@H]1CC[C@H]1[C@]2(C)CC[C@H](OC(=O)c3ccc(F)cc3)C(C)(C)O[C@H]2CC[C@@]1(C)O`, the IC50 in series [1] is 2.4 µM; in series [1] (read-out: pIC50 (converted)) it was 2.4 µM; in series [4] it was 33.5 µM; in series [5], 11.3 µM. Also, the Activity result in series [2] and in series [3] was “Non-toxic” throughout.
Consider `CC1=CC[C@H]2[C@H](CC[C@]2(C)O)C(C)(C)[C@@H]1CC[C@H]1[C@]2(C)CC[C@H](OC(=O)c3ccccc3Cl)C(C)(C)O[C@H]2CC[C@@]1(C)O`, for which the IC50 came to 6.1 µM in series [1], 12.1 µM in series [4] and 24.3 µM in series [5]. For the same compound, the Activity result in series [2] and in series [3] was “Non-toxic” each time.
